In patent publication US9206241B2, “Modified prokaryotic ubiquitin-like protein and methods of use thereof” (priority 2012, dated 2015):

Legend:
[1] = molecular target: Dop (deamidase of Pup), Dop-His6 (Mycobacterium tuberculosis, UniProt P9WNU9); conditions: for Km / kcat: Dop kinetics with synthetic substrate, n.a. = no activity
Excerpt: SoftMax Pro (Molecular Devices) was used to measure the data and GraphPad Prism was used to fit the kinetic data.

[2] = tested on: lysates of E. coli; experiment: Hydrolysis of substrate in E. coli lysates; type: biochemical

Dop (deamidase of Pup), Dop-His6, sequence (P9WNU9 whole entry): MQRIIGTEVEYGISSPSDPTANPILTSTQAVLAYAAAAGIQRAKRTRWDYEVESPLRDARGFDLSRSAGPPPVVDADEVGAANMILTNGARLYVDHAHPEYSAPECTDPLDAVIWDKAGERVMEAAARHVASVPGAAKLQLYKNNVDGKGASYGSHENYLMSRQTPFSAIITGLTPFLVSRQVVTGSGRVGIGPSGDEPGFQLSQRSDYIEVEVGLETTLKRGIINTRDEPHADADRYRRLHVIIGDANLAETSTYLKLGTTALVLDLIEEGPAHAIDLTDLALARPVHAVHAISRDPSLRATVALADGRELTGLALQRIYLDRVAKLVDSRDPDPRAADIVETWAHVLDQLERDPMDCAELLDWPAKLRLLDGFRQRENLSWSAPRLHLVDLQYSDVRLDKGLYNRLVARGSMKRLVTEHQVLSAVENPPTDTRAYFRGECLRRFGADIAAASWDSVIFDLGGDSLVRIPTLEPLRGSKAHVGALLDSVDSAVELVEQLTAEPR

| Substance | Km [1] [nM] | kcat [1] [min⁻¹] | hydrolytic activity of Dop on the substrate (cleavage of AMC) ([1]; increase in fluorescence over time) | hydrolysis of substrate in lysate [2] |
| --- | --- | --- | --- | --- |
| EETDDLLDEIDDVLEENAEDFVRAYVQKGG-Glu(AMC) [1b] | 750 ± 80 | 0.68 ± 0.02 |  |  |
| MAQEQTKRGGGGGDDDDIAGSTAAGQERREKLTEETDDLLDEIDDV LEENAEDFVRAYVQKGG-Glu(AMC) [1a] | 650 ± 70 | 0.60 ± 0.02 | showed hydrolytic activity | could not hydrolyze |
